According to ChEMBL document CHEMBL3862033 (J Med Chem, 2016):

Assays:
Cytochrome P450 2C19 = Cytochrome P450 2C19 (Homo sapiens, UniProt P33261); assay: Inhibition of CYP2C19 (unknown origin); assay type: ADME
Cytochrome P450 2D6 = Cytochrome P450 2D6 (Homo sapiens, UniProt P10635); assay: Inhibition of CYP2D6 (unknown origin); assay type: ADME
Cytochrome P450 1A2 = Cytochrome P450 1A2 (Homo sapiens, UniProt P05177); assay: Inhibition of CYP1A2 (unknown origin); assay type: ADME
[1] = molecular target: Sodium-dependent dopamine transporter (Homo sapiens, UniProt Q01959); assay: Inhibition of human dopamine transporter expressed in HEK293 cells assessed as inhibition of dopamine uptake measured after 30 mins by fluorescence analysis; assay type: cell-based
Sequence of Sodium-dependent dopamine transporter (Q01959 whole entry): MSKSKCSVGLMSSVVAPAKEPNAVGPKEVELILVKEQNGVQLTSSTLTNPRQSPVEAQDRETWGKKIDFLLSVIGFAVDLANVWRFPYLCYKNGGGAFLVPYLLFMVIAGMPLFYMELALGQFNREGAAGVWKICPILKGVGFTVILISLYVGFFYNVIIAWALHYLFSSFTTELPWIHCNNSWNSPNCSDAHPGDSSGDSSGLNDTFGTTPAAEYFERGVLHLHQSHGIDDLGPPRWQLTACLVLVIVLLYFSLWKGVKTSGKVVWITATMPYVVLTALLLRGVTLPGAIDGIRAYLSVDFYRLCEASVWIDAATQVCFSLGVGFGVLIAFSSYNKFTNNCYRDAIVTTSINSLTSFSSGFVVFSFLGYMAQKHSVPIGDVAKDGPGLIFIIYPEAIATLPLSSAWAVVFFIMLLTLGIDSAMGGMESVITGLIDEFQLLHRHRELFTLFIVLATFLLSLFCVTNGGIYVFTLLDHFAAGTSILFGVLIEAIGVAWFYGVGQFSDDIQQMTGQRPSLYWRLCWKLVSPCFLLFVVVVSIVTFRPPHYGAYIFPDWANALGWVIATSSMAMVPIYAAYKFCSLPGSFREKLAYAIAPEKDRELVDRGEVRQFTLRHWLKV

Sequence of Cytochrome P450 1A2 (P05177 whole entry): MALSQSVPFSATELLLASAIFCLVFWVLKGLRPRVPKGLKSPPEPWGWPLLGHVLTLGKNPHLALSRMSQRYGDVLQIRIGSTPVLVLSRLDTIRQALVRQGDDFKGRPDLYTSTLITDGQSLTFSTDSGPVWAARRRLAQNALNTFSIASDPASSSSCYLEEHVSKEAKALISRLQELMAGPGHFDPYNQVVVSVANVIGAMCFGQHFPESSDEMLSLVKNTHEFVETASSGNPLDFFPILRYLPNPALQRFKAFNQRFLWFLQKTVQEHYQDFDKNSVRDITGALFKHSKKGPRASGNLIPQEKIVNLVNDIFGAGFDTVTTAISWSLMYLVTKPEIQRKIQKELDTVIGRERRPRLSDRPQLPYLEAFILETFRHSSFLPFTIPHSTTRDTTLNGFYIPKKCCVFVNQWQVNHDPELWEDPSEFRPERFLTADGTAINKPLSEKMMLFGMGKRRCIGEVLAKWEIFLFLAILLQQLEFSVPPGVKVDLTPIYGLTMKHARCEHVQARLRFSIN
Sequence of Cytochrome P450 2D6 (P10635 whole entry): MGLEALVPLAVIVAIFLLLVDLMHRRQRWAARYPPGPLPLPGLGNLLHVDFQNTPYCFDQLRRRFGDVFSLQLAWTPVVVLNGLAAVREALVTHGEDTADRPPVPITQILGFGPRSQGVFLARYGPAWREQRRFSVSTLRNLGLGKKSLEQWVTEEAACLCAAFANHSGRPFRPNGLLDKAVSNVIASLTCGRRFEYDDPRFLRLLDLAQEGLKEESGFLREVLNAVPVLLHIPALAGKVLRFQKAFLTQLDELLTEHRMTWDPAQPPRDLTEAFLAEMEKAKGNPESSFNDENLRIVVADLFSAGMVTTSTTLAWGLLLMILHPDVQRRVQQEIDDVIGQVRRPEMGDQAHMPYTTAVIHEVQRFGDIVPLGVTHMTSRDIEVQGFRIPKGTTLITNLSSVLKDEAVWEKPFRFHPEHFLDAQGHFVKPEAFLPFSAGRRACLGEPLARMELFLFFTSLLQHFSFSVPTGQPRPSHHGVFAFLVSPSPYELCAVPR
Sequence of Cytochrome P450 2C19 (P33261 whole entry): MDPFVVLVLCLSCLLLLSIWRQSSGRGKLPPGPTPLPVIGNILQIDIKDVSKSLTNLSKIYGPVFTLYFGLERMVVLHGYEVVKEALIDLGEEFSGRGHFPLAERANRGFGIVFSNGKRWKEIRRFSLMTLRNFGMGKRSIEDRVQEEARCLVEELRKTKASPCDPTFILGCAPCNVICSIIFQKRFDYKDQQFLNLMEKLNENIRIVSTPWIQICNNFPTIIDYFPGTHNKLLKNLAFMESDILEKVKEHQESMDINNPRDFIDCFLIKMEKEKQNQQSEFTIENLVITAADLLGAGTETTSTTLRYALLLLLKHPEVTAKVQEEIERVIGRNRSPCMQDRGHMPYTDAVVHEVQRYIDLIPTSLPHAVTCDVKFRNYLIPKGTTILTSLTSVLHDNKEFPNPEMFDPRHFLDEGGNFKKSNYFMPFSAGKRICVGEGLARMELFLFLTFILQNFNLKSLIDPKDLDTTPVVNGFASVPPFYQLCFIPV

SMILES	IC50 (Cytochrome P450 2C19) [µM]	IC50 (Cytochrome P450 2D6) [µM]	IC50 (Cytochrome P450 1A2) [µM]	Ki [1] [µM]
CNC(=O)[C@@]12C[C@@H]1[C@@H](n1cnc3c(NC(C4CC4)C4CC4)nc(Cl)nc31)[C@H](O)[C@@H]2O	> 30	> 30	> 30	
OC[C@@]12C[C@@H]1[C@@H](n1cnc3c(NC(C4CC4)C4CC4)nc(Cl)nc31)[C@H](O)[C@@H]2O				4.8
